We go through three substances from patent US20250213452A1, “BIFUNCTIONAL PEPTIDES FOR BIOMIMETIC RECONSTRUCTION OF SILVER DIAMINE FLUORIDE TREATED DENTAL TISSUES” (University of Kansas, priority 2022, published 2025).

For experiment [1] the following is noted: cell-free assay, demineralized human dentin root surfaces; cited from earlier work.
The nature of experiment [2]: Enzyme-mediated (alkaline phosphatase) mineralization on Ag-coated silica substrates, SEM/EDS. The conditions noted are these: 50 μM bifunctional peptide. Here is the method:
(§1) Lyophilized peptide stocks were selected and reconstituted in Milli-Q (resistance, >18 MQ) water immediately prior to experiments with both silver-coated silica substrates and slabs of dental tissue. Stock solutions were prepared to a final concentration of 100 μM peptide. Silica substrates or slabs of dental tissue were submerged into a solution containing 50 μM peptide and allowed 2-4 hours gentle shaking at room temperature to ensure the binding of AgBP. This excess concentration and incubation time was used to ensure ample peptide binding.
To confirm the selectivity and specificity for silver-binding of bifunctional peptides, preliminary studies were conducted on silver-coated silica substrates. Silica wafers were cut into 1 cm square pieces using a diamond scribe and a published protocol for […] deposition of silver onto silica was followed.^66,67 Briefly, the Si(111) wafers were cleansed in hydrogen peroxide and sulfuric acid solution (3:7) for 20 minutes, rinsed thoroughly with Milli-Q water, and dried with N2 gas prior to use. An etching step was employed prior to Ag-deposition, where a drop of 5% NH4F solution was placed on the surface of the cleaned silica substrate for 30 s and removed carefully with N2 gas. […]

Experiment [3] in a line: Enzyme-mediated mineralization on SDF-treated dental tissue slabs, SEM/EDS Ca/P ratio of mineral layer. The arrangement: species or system human. Conditions: for Averaged calculated Ca/P ratio: Mineralized sample. Here is the method:
as §1
NaCl containing 0.002% sodium azide.
To investigate calcium phosphate nucleation facilitated by the MP, an alkaline phosphatase (AP) based mineralization model was followed.^44 This model mimics the biological process wherein inorganic phosphate is cleaved from organic phosphate by naturally occurring AP and subsequently reacts with free calcium. Briefly, control samples without peptide and test samples functionalized with MP were submerged in a remineralization buffer containing 14.4 mM β-glycerophosphate (β-GP) and 24 mM Ca^2+ in 25 mM Tris-HCl at pH 7.4. Mineralization reactions were initiated by adding alkaline phosphatase (fastAP; ThermoFisher, USA) to the solutions to achieve a final concentration of 1.4×10^−6 g/mL and allowed to react at 37° C. for 2 hours to form a calcium phosphate mineral layer on the sample surface. Samples were removed from the solution and allowed to air dry prior to microscopic and spectroscopic analyses.
For the bifunctional peptide treated group, SDF-treated dental tissues were functionalized with either 0 μM or 50 μM bifunctional peptide prior to the mineralization protocol. […] On average, the Ca/P ratios from the mineralized layer observed in both the peptide-treated and SDF-treated tissue as well as the SDF-only treated tissues, were about 0.1-0.15 less than what was obtained for the untreated and peptide-functionalized Ag-coated silica samples. The presence of calcium phosphate rich minerals in the slabs of dental tissue may alter the availability of free calcium and phosphate in the enzyme-mediated mineralization reaction. […] Differences in the mineralization may also be attributed to the anchoring effect of the AgBP peptide being bound to the SDF-treated regions of the dental tissue.

The conditions of experiment [4]: SDF-treated Control.
Description: Specimens of dental tissues were prepared using a protocol modified slightly from previous publications.^45 The specimens consisted of extracted human molars. […] The extracted teeth were stored at 4° C. in 0.9% wt./vol. NaCl containing 0.002% sodium azide. […] The tooth was sectioned parallel to the long axis to provide 1.4 mm thick slabs. The prepared sections were stored in a modified phosphate buffered saline (PBS) buffer (20 mM Na2HPO4, 137 mM NaCl, 2.7 mM KCl, and 1.8 mM KH2PO4, pH 7.4) at 4° C. until experimental use.
SDF was applied to dental tissue following the detailed guidelines published by the UCSF Caries Arrest Committee.^25,34 Briefly, the prepared slabs of dental tissue were removed from the modified PBS buffer, rinsed with Milli-Q purified water, and gently dried with compressed air to reveal suitable carious regions of the dental tissues. A single drop of commercially available 38% SDF solution (Dengen Caries Arrest; Dengen Dental, Bahadurgarh, Haryana, India) was placed into a fresh plastic dish. A microbrush applicator head was dipped into the solution and touched to the side of the dish to remove excess fluid by surface tension. The SDF was applied to the dental tissue, allowed to absorb for 1 minute and the treated sample was gently rinsed with Milli-Q purified water. The tissue was placed back into modified PBS buffer and incubated at 37° C. for 6 hours to mimic the oral environment and to allow for SDF activity.
To image the mineral morphology, surface coverage, and to determine the Ca/P ratios of the precipitated material, a Hitachi SU8230 Field Emission Scanning Electron Microscope (Hitachi High-Tech America, IL, USA) equipped with a silicon drift EDS detector (X-Max, Oxford Instruments, MA, USA) was used. SEM imaging was completed at 5 kV and EDS measurements made with an acceleration voltage of 10 kV to improve signal. Prior to SEM/EDS analysis, samples were sputter-coated with 5 nm iridium using a Quorum sputter coating system (Q150, Quorum, UK). EDS analysis was performed using AZtec software (Oxford Instruments, MA, USA) and values were averaged across a minimum of three regions for each sample.
Treated dental tissues were analyzed using SEM for imaging and EDS for compositional analysis. Average Ca/P molar ratios were calculated for each slab of dental tissue from both SDF-treated and untreated regions of enamel and dentin, corresponding to SDF treatment of carious dental tissues, to assess mineral formation and compositional changes on the tooth samples in the presence and absence of the bifunctional peptide.

Read-outs that look alike come from different tables or passages of the source.

In the case of “SYEKSHSQAINTDRT [MP, mineralizing peptide domain, 15 amino acids, derived from amelogenin]”, in experiment [1], the “hydroxyapatite mineral layer formation” value was “regulated formation of a robust hydroxyapatite mineral layer”.

Take “SYEKSHSQAINTDRTAPAEQLGVRKELRGV [MP_APA_AgBP, bifunctional peptide, MP and AgBP domains joined by APA spacer]”: in experiment [2] (EDS), the “average Ca/P ratio of mineral layer” value is “about 1.40”. Further, in experiment [2] (alkaline phosphatase-based mineralization, SEM), the “mineral coverage compared to control samples” value is “significantly higher mineral coverage”. Besides, the “Averaged calculated Ca/P ratio” value in experiment [3] (SDF-treated Peptide-functionalized (50 μM), Dentin) was 1.291; in experiment [3] (SDF-treated Peptide-functionalized (50 μM), Enamel) it was 1.338; in experiment [3] (SDF-treated Peptide-functionalized (50 μM), SDF-stained dentin) it was 1.238; in experiment [3] (SDF-treated Peptide-functionalized (50 μM), SDF-stained enamel) it was 1.257. Besides, the “mineralization onto SDF treated dental tissues” value in experiment [3] (four SDF treated slabs of carious dental tissue, bright field optical microscopy, FIG. 7) is given as “demonstrated the capacity to direct mineralization”.

silver diamine fluoride [SDF]: the “Averaged calculated Ca/P ratio” value in experiment [3] (SDF-treated, 0 μM peptide, Dentin) is listed as 1.066; in experiment [3] (SDF-treated, 0 μM peptide, Enamel), 1.092; in experiment [3] (SDF-treated, 0 μM peptide, SDF-stained dentin), 1.137; in experiment [3] (SDF-treated, 0 μM peptide, SDF-stained enamel) it was 1.100; in experiment [4] (Dentin (untreated region)), 1.419; in experiment [4] (Enamel (untreated region)) it was 1.447. Besides, the “Averaged calculated Ca/P ratio” value in experiment [4] (SDF-stained dentin) is listed as 1.546; in experiment [4] (SDF-stained enamel), 1.540.
